The data set is described as follows: Urinary excretion of phenolic metabolites after intake of the GCPE nutraceutical. The note with it: for Cumulative urinary excretion, Total 0–24 h / Urinary excretion: urine; for Cumulative urinary excretion, Total 0–24 h: mean ± SEM, n = 9.

Turning to `O=C(/C=C/c1ccc(O)c(O)c1)O[C@@H]1C[C@](O)(C(=O)O)C[C@@H](O)[C@H]1O` [3-Caffeoylquinic acid], the “Cumulative urinary excretion, Total 0–24 h” value (“Cumulative urinary excretion” below) was determined as 0.21 ± 0.05 µmol (week 0) and 0.18 ± 0.03 µmol (week 8). The Amount excreted in urine, 0- 3 h came out at 0.11 ± 0.02 µmol (week 0, interval 0–3 h) and 0.1 ± 0.02 µmol (week 8, interval 0–3 h). Besides, the Amount excreted in urine, 3-6 h reads like this: (week 0, interval 3–6 h) 0.08 ± 0.03 µmol; (week 8, interval 3–6 h) 0.045 ± 0.008 µmol. Also, the Amount excreted in urine, 6-9 h runs as follows: (week 0, interval 6–9 h) 0.022 ± 0.009 µmol; (week 8, interval 6–9 h) 0.028 ± 0.007 µmol. Besides, the Amount excreted in urine, 9-11 h is, setting by setting: (week 0, interval 9–11 h) 0.003 ± 0.002 µmol; (week 8, interval 9–11 h) 0.008 ± 0.005 µmol.

In the case of `O=C(CCc1ccc(O)c(O)c1)OC1CC(O)(C(=O)O)CC(O)C1O` (stereo not shown) [3-Dihydrocaffeoylquinic acid], the Urinary excretion reads like this: (week 0) 0.35 µmol/24 h; (week 8) 0.27 µmol/24 h. The “Cumulative urinary excretion” value by setting is: (week 0) 0.35 ± 0.07 µmol; (week 8) 0.27 ± 0.08 µmol. Also, the Amount excreted in urine, 0- 3 h is, setting by setting: (week 0, interval 0–3 h) 0.06 ± 0.02 µmol; (week 8, interval 0–3 h) 0.025 ± 0.007 µmol. The Amount excreted in urine, 3-6 h by setting is: (week 0, interval 3–6 h) 0.033 ± 0.005 µmol; (week 8, interval 3–6 h) 0.019 ± 0.005 µmol. Further, the Amount excreted in urine, 6-9 h was found to be 0.05 ± 0.02 µmol (week 0, interval 6–9 h) and 0.04 ± 0.01 µmol (week 8, interval 6–9 h). Also, the Amount excreted in urine, 9-11 h runs as follows: (week 0, interval 9–11 h) 0.04 ± 0.01 µmol; (week 8, interval 9–11 h) 0.03 ± 0.01 µmol. Moreover, the Amount excreted in urine, 11-24 h runs as follows: (week 0, interval 11–24 h) 0.17 ± 0.04 µmol; (week 8, interval 11–24 h) 0.15 ± 0.06 µmol.

For the compound `COc1cc(CCC(=O)OC2CC(O)(C(=O)O)CC(O)C2O)ccc1O` (stereo not shown) [3-Dihydroferuloylquinic acid], the “Cumulative urinary excretion” value came out at 0.3 ± 0.1 µmol (week 0) and 0.5 ± 0.07 µmol (week 8). In addition, the Amount excreted in urine, 0- 3 h (week 0, interval 0–3 h) worked out at 0.05 ± 0.01 µmol and the Amount excreted in urine, 0- 3 h (week 8, interval 0–3 h) is 0.11 ± 0.02 µmol. Further, the Amount excreted in urine, 3-6 h (week 0, interval 3–6 h) is 0.034 ± 0.006 µmol and the Amount excreted in urine, 3-6 h (week 8, interval 3–6 h) is 0.062 ± 0.008 µmol. Besides, the Amount excreted in urine, 6-9 h runs as follows: (week 0, interval 6–9 h) 0.029 ± 0.006 µmol; (week 8, interval 6–9 h) 0.08 ± 0.01 µmol. For the same compound, the Amount excreted in urine, 9-11 h (week 0, interval 9–11 h) is 0.019 ± 0.005 µmol and the Amount excreted in urine, 9-11 h (week 8, interval 9–11 h) stood at 0.08 ± 0.02 µmol. Also, the Amount excreted in urine, 11-24 h (week 0, interval 11–24 h) was found to be 0.16 ± 0.09 µmol and the Amount excreted in urine, 11-24 h (week 8, interval 11–24 h) was 0.14 ± 0.02 µmol.

For the compound `O=C(/C=C/c1ccc(O)c(O)c1)OC1[C@H](O)CC(O)(C(=O)O)C[C@H]1O` (stereo partly shown) [4-Caffeoylquinic acid], the “Cumulative urinary excretion” value is, setting by setting: (week 0) 0.13 ± 0.07 µmol; (week 8) 0.15 ± 0.07 µmol. The Amount excreted in urine, 6-9 h stood at 0.03 ± 0.02 µmol (week 0, interval 6–9 h) and 0.06 ± 0.03 µmol (week 8, interval 6–9 h). Also, the Amount excreted in urine, 9-11 h is 0.05 ± 0.04 µmol (week 0, interval 9–11 h) and 0.05 ± 0.03 µmol (week 8, interval 9–11 h). In addition, the Amount excreted in urine, 11-24 h (week 0, interval 11–24 h) turned out to be 0.05 ± 0.02 µmol and the Amount excreted in urine, 11-24 h (week 8, interval 11–24 h) was 0.02 ± 0.01 µmol. Besides, the Amount excreted in urine, 0- 3 h (week 8, interval 0–3 h) came to 0.01 ± 0.01 µmol. Moreover, the Amount excreted in urine, 3-6 h (week 8, interval 3–6 h) worked out at 0.008 ± 0.005 µmol.

As to `O=C(CCc1ccc(O)c(O)c1)OC1C(O)CC(O)(C(=O)O)CC1O` (stereo not shown) [4-Dihydrocaffeoylquinic acid], the “Cumulative urinary excretion” value came to 0.06 ± 0.02 µmol (week 0) and 0.04 ± 0.02 µmol (week 8). Also, the Amount excreted in urine, 0- 3 h is, setting by setting: (week 0, interval 0–3 h) 0.011 ± 0.004 µmol; (week 8, interval 0–3 h) 0.008 ± 0.004 µmol. In addition, the Amount excreted in urine, 3-6 h (week 0, interval 3–6 h) was determined as 0.005 ± 0.002 µmol and the Amount excreted in urine, 3-6 h (week 8, interval 3–6 h) worked out at 0.003 ± 0.002 µmol. The Amount excreted in urine, 6-9 h (week 0, interval 6–9 h) was 0.005 ± 0.002 µmol and the Amount excreted in urine, 6-9 h (week 8, interval 6–9 h) was found to be 0.004 ± 0.002 µmol. The Amount excreted in urine, 9-11 h runs as follows: (week 0, interval 9–11 h) 0.006 ± 0.002 µmol; (week 8, interval 9–11 h) 0.004 ± 0.003 µmol. Also, the Amount excreted in urine, 11-24 h by setting is: (week 0, interval 11–24 h) 0.036 ± 0.008 µmol; (week 8, interval 11–24 h) 0.02 ± 0.01 µmol.

As for `COc1cc(CCC(=O)OC2C(O)CC(O)(C(=O)O)CC2O)ccc1O` (stereo not shown) [4-Dihydroferuloylquinic acid], the “Cumulative urinary excretion” value (week 0) was 0.06 ± 0.02 µmol and the “Cumulative urinary excretion” value (week 8) was determined as 0.05 ± 0.02 µmol. Moreover, the Amount excreted in urine, 0- 3 h (week 0, interval 0–3 h) came out at 0.011 ± 0.004 µmol and the Amount excreted in urine, 0- 3 h (week 8, interval 0–3 h) was 0.015 ± 0.008 µmol. The Amount excreted in urine, 3-6 h (week 0, interval 3–6 h) worked out at 0.008 ± 0.003 µmol. The Amount excreted in urine, 6-9 h was 0.013 ± 0.005 µmol (week 0, interval 6–9 h) and 0.011 ± 0.007 µmol (week 8, interval 6–9 h). In addition, the Amount excreted in urine, 9-11 h was 0.005 ± 0.003 µmol (week 0, interval 9–11 h) and 0.003 ± 0.002 µmol (week 8, interval 9–11 h). The Amount excreted in urine, 11-24 h was 0.019 ± 0.009 µmol (week 0, interval 11–24 h) and 0.009 ± 0.005 µmol (week 8, interval 11–24 h).

With `O=C(/C=C/c1ccc(O)c(O)c1)O[C@@H]1C[C@@](O)(C(=O)O)C[C@@H](O)[C@@H]1O` [5-Caffeoylquinic acid], the “Cumulative urinary excretion” value is, setting by setting: (week 0) 0.33 ± 0.06 µmol; (week 8) 0.33 ± 0.04 µmol. Besides, the Amount excreted in urine, 0- 3 h stood at 0.18 ± 0.04 µmol (week 0, interval 0–3 h) and 0.18 ± 0.04 µmol (week 8, interval 0–3 h). Also, the Amount excreted in urine, 3-6 h amounted to 0.12 ± 0.04 µmol (week 0, interval 3–6 h) and 0.08 ± 0.01 µmol (week 8, interval 3–6 h). For the same compound, the Amount excreted in urine, 6-9 h (week 0, interval 6–9 h) is 0.03 ± 0.01 µmol and the Amount excreted in urine, 6-9 h (week 8, interval 6–9 h) worked out at 0.033 ± 0.008 µmol. The Amount excreted in urine, 9-11 h runs as follows: (week 0, interval 9–11 h) 0.004 ± 0.002 µmol; (week 8, interval 9–11 h) 0.009 ± 0.007 µmol. Also, where the note is “week 8, interval 11–24 h”, the Amount excreted in urine, 11-24 h is 0.006 ± 0.006 µmol.

Turning to `COc1cc(CCC(=O)OC2CC(O)(C(=O)O)CC(O)C2O)ccc1O` (stereo not shown) [5-Dihydroferuloylquinic acid], the “Cumulative urinary excretion” value reads like this: (week 0) 0.3 ± 0.1 µmol; (week 8) 0.18 ± 0.07 µmol. Also, the Amount excreted in urine, 0- 3 h runs as follows: (week 0, interval 0–3 h) 0.12 ± 0.08 µmol; (week 8, interval 0–3 h) 0.08 ± 0.04 µmol. The Amount excreted in urine, 3-6 h by setting is: (week 0, interval 3–6 h) 0.023 ± 0.004 µmol; (week 8, interval 3–6 h) 0.021 ± 0.008 µmol. For the same compound, the Amount excreted in urine, 6-9 h runs as follows: (week 0, interval 6–9 h) 0.027 ± 0.009 µmol; (week 8, interval 6–9 h) 0.03 ± 0.02 µmol. The Amount excreted in urine, 9-11 h is 0.013 ± 0.004 µmol (week 0, interval 9–11 h) and 0.008 ± 0.003 µmol (week 8, interval 9–11 h). Also, the Amount excreted in urine, 11-24 h (week 0, interval 11–24 h) was 0.1 ± 0.04 µmol and the Amount excreted in urine, 11-24 h (week 8, interval 11–24 h) was 0.04 ± 0.02 µmol.

In the case of `O=C(O)/C=C/c1ccc(O)c(OS(=O)(=O)O)c1` [CA-3′-sulfate, 4′Hydroxycinnamic acid-3′-sulfate], the “Cumulative urinary excretion” value by setting is: (week 0) 3.7 ± 0.5 µmol; (week 8) 4.4 ± 0.8 µmol. Moreover, the Amount excreted in urine, 0- 3 h runs as follows: (week 0, interval 0–3 h) 1.2 ± 0.3 µmol; (week 8, interval 0–3 h) 1.2 ± 0.2 µmol. The Amount excreted in urine, 3-6 h runs as follows: (week 0, interval 3–6 h) 0.7 ± 0.2 µmol; (week 8, interval 3–6 h) 0.6 ± 0.1 µmol. In addition, the Amount excreted in urine, 6-9 h is 0.8 ± 0.2 µmol (week 0, interval 6–9 h) and 0.9 ± 0.3 µmol (week 8, interval 6–9 h). In addition, the Amount excreted in urine, 9-11 h (week 0, interval 9–11 h) was determined as 0.21 ± 0.06 µmol and the Amount excreted in urine, 9-11 h (week 8, interval 9–11 h) is 0.7 ± 0.3 µmol. In addition, the Amount excreted in urine, 11-24 h (week 0, interval 11–24 h) came to 0.9 ± 0.2 µmol and the Amount excreted in urine, 11-24 h (week 8, interval 11–24 h) is 1 ± 0.3 µmol.

Turning to `O=C(O)CCc1ccc(O)c(O[C@@H]2O[C@H](C(=O)O)[C@@H](O)[C@H](O)[C@H]2O)c1` [DHCA-3′-glucuronide, 3-(4′-Hydroxyphenyl)propanoic acid-3′-glucuronide], the “Cumulative urinary excretion” value amounted to 0.6 ± 0.2 µmol (week 0) and 0.5 ± 0.1 µmol (week 8). Further, the Amount excreted in urine, 0- 3 h by setting is: (week 0, interval 0–3 h) 0.09 ± 0.03 µmol; (week 8, interval 0–3 h) 0.11 ± 0.04 µmol. In addition, the Amount excreted in urine, 3-6 h (week 0, interval 3–6 h) worked out at 0.07 ± 0.02 µmol and the Amount excreted in urine, 3-6 h (week 8, interval 3–6 h) is 0.06 ± 0.02 µmol. Besides, the Amount excreted in urine, 6-9 h (week 0, interval 6–9 h) was determined as 0.08 ± 0.04 µmol and the Amount excreted in urine, 6-9 h (week 8, interval 6–9 h) is 0.08 ± 0.02 µmol. In addition, the Amount excreted in urine, 9-11 h (week 0, interval 9–11 h) was found to be 0.04 ± 0.02 µmol. In addition, the Amount excreted in urine, 11-24 h reads like this: (week 0, interval 11–24 h) 0.3 ± 0.09 µmol; (week 8, interval 11–24 h) 0.2 ± 0.06 µmol.

Source of the values: PMC9230201, “Sustained Consumption of a Decaffeinated Green Coffee Nutraceutical Has Limited Effects on Phenolic Metabolism and Bioavailability in Overweight/Obese Subjects” (Nutrients, 2022).
